What was measured:
Endothiapepsin = target: T1, Endothiapepsin (Cryphonectria parasitica, UniProt P11838); test: Inhibition of Endothia parasitica endothiapepsin using Abz-Thr-Ile-Nle-p-nitro-Phe-Gln-Arg-NH2 as substrate by fluorescence method
T1 sequence (P11838 whole entry): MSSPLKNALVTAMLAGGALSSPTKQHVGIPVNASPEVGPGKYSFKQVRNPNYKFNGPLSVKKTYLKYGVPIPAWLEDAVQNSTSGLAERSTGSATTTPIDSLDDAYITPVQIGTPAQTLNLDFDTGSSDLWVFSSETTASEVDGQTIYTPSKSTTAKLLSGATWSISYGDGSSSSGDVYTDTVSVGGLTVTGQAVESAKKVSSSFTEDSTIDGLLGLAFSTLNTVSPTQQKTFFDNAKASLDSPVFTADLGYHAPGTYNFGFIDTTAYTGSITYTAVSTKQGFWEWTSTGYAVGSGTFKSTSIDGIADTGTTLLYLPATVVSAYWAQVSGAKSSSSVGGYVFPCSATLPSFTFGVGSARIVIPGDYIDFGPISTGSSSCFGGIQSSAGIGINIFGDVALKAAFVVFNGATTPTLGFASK

Histone deacetylase 8 = target: T2, Histone deacetylase 8 (Homo sapiens, UniProt Q9BY41); test: Inhibition of HDAC8 (unknown origin) using acetylated lysine as substrate incubated for 20 mins by Lineweaver-Burk double-reciprocal plot analysis
T2 sequence (Q9BY41 whole entry): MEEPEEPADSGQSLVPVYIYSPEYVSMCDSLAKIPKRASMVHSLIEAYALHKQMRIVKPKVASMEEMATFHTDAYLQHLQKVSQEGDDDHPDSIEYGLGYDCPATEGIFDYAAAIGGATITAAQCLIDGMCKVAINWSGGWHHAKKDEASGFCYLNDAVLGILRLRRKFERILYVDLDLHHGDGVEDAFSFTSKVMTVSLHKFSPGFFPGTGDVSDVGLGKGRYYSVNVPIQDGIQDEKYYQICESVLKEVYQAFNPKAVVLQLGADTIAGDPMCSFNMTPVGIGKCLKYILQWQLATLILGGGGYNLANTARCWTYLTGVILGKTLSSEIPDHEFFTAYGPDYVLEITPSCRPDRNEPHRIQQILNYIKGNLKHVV

Bcl-2-like protein 1 = Bcl-2-like protein 1 (Homo sapiens, UniProt Q07817)
Bcl-2-like protein 1, sequence (Q07817 whole entry): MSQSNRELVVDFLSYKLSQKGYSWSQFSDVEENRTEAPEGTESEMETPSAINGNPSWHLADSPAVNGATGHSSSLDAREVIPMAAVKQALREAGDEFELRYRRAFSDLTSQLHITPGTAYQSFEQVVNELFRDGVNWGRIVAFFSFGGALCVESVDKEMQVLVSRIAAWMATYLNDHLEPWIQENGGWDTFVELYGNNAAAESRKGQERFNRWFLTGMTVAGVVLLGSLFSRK
Description: Inhibition of FITC-labeled Bak BH3 peptide binding to His6-tagged GST-fused Bcl-xL (unknown origin) expressed in Escherichia coli BL21 preincubated for 10 mins followed by Bak BH3 peptide addition and measured after 30 mins by fluorescence polarization-based competitive binding assay

[1] = Binding affinity to FKBP (unknown origin) by fluorescence-based assay; set-up: species or system Homo sapiens
[2] = Inhibition of human lung tryptase using Tosyl-Gly-Pro-Arg-p-nitroanilide as substrate preincubated for 5 mins followed by substrate addition and measured after 15 mins
Chitinase B = target: T3, Chitinase B (Serratia marcescens, UniProt P11797); test: Inhibition of Serratia marcescens chitinase B
T3 sequence (P11797 whole entry): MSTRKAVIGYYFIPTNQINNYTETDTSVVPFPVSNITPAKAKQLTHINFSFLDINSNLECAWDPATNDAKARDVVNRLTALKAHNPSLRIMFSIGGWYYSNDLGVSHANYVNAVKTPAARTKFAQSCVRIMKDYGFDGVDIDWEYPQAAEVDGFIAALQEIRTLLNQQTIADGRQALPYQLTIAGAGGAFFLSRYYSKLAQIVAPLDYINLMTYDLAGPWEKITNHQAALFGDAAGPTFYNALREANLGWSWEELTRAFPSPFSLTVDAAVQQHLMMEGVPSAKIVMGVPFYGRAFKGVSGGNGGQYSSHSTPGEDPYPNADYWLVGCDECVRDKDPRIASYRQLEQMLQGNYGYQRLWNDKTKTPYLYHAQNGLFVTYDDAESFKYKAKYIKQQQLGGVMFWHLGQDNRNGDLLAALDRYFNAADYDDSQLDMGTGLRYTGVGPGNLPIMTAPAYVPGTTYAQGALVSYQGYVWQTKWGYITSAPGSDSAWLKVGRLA

Heat shock protein HSP90 [3] = target: T4, Heat shock protein HSP90 (Homo sapiens, UniProt P07900+P08238); test: Displacement of biotin-labelled geldanamycin from human HSP90 (D9 to E236 residues) incubated for 3 hrs by FRET assay; assay type: protein assay
[4] = Inhibition of avidin (unknown origin)
[5] = Binding affinity to human E-selectin/IgG expressed in CHO-K1 cells by surface plasmon resonance
[6] = Binding affinity to His6-tagged Mycobacterium tuberculosis pantothenate synthetase expressed in Escherichia coli C41(DE3) measured over 30 mins by isothermal titration calorimetry
[7] = target: Proto-oncogene tyrosine-protein kinase Src (Homo sapiens, UniProt P12931); test: Inhibition of c-Src (unknown origin) using biotin-KVEKIGEGTYGVVYK as substrate by ELISA
Proto-oncogene tyrosine-protein kinase Src, sequence (P12931 2-536 limits assumed): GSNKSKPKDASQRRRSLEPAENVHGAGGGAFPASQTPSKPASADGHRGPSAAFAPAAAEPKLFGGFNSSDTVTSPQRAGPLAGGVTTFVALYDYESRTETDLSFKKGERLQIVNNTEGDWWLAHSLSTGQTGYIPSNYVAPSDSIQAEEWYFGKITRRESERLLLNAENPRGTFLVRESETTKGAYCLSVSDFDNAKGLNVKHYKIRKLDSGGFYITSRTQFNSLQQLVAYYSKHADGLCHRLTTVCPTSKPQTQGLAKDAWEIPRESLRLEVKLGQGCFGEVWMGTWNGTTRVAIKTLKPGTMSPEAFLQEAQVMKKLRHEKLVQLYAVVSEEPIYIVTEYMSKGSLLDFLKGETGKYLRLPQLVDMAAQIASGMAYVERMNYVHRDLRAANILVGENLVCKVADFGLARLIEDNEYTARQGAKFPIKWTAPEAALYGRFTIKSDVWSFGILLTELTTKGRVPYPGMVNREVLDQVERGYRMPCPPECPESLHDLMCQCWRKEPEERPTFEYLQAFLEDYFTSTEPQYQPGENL

Heat shock protein HSP90 [8] = target: T4, Heat shock protein HSP90; test: Inhibition of human HSP90 (D9 to E236 residues) by fluorescence spectroscopy; assay type: protein assay
[9] = Inhibition of Mycobacterium tuberculosis EthR assessed as reduction in protein interaction with immobilized ethA promoter DNA by SPR assay
Heat shock protein HSP90 [10] = target: T4, Heat shock protein HSP90
Description: Binding affinity to N-terminal human HSP90 (D9 to E236 residues) expressed in Escherichia coli BL21(DE3) by 1H-13C HSQC-NMR spectroscopy

CDK2/Cyclin A2 = CDK2/Cyclin A2 (Homo sapiens, UniProt P24941); test: Inhibition of CDK2/Cyclin A (unknown origin) using histone H1 as substrate by scintillation counting method; assay type: protein-complex assay
Heat shock protein HSP90 [11] = target: T4, Heat shock protein HSP90; test: Inhibition of HSP90 (unknown origin) by confocal fluorescence-based biochemical assay; assay type: protein assay
[12] = target: T5, Tyrosine-protein phosphatase non-receptor type 1 (Homo sapiens, UniProt P18031); test: Binding affinity to N-terminal GST-fused human PTP1B (1 to 288 residues) expressed in Escherichia coli BL21(DE3) by HSQC NMR analysis
T5 sequence (P18031 whole entry): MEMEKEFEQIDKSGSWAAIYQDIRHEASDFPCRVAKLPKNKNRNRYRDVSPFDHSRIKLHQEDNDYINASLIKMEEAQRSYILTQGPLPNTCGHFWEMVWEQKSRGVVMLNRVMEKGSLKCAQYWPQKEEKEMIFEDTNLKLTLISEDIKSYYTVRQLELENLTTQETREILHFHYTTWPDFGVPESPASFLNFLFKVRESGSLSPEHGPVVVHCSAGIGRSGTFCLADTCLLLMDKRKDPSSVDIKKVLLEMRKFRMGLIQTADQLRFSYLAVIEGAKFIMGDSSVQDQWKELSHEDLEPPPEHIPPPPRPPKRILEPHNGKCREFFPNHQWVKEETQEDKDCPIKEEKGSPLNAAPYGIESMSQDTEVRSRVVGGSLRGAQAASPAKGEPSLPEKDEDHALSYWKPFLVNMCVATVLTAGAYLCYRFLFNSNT

C#Cc1ccc(N2CCNCC2)cc1
IC50 (Endothiapepsin): 43 µM

O=C(NO)c1ccc(-c2cn(CC34CC5CC(CC(C5)C3)C4)nn2)s1
IC50 (Histone deacetylase 8): 4 µM

CC1(C)CCN(c2ccc(C(=O)S)cc2)CC1
IC50 (Bcl-2-like protein 1): > 100 µM

COc1cc(C(=O)C(=O)N2CCCC[C@H]2C(=O)OCCCc2ccc(C(=O)Nc3ccc(O)cc3)cc2O)cc(OC)c1OC
Kd [1]: 0.049 µM

N=C(N)c1ccc(C(=O)NCc2ccc(OCCCCCOc3ccc(CNC(=O)c4ccc(C(=N)N)cc4)cc3)cc2)cc1
Ki [2]: < 1e-05 µM

CNC(=O)NC(=N)NCCC[C@H](NC(=O)CN=[N+]=[N-])C(=O)N(Cc1ccccc1)Cc1ccccc1
IC50 (Chitinase B): 0.58 µM

Cc1cc(CNS(=O)(=O)c2ccc(N/C=C3\CCOC3=O)cc2)nc(N)n1
Ki (Heat shock protein HSP90 [3]): 1.9 µM

C[C@H]1CNC(=O)N1
Ki [4]: 34 µM

O=C(NO)c1ccc(-c2cnnn2CC23CC4CC(CC(C4)C2)C3)s1
IC50 (Histone deacetylase 8): 0.51 µM

COC(=O)[C@H]1C[C@H](O[C@@H]2O[C@H](CO)[C@H](O)[C@H](O[C@@H](CC3CCCCC3)C(=O)O)[C@H]2OC(=O)c2ccccc2)[C@H](O[C@@H]2O[C@@H](C)[C@@H](O)[C@@H](O)[C@@H]2O)[C@@H](C)C1
Kd [5]: 1.9 µM

COc1ccc2c(ccn2CC(=O)O)c1
Kd [6]: 500 µM

C#Cc1ccc(C(=O)NO)s1
IC50 (Histone deacetylase 8): 1 µM

CCn1c2ccccc2c2cc(/C=N/OC)ccc21
IC50 [7]: 40 µM

Cc1cc(C#Cc2ccccc2N/C=C2\CCOC2=O)nc(N)n1
Ki (Heat shock protein HSP90 [8]): 4 µM

CCn1c2ccccc2c2cc(/C=N/OCCO/N=C/c3ccc(O)c(O)c3)ccc21
IC50 [7]: 0.064 µM

C[C@@H]1O[C@@H](O[C@H]2[C@@H](O[C@@H]3O[C@H](CO)[C@H](O)[C@H](O[C@@H](CC4CCCCC4)C(=O)O)[C@H]3OC(=O)c3ccccc3)C[C@H](C(=O)NCCCc3cn(CCCn4ccc5cc([N+](=O)[O-])ccc54)nn3)C[C@@H]2C)[C@@H](O)[C@H](O)[C@@H]1O
Kd [5]: 0.03 µM

O=C(CCc1ccccc1)N1CC[C@@H](SS[C@@H]2CCN(C(=O)CCc3ccccc3)C2)C1
IC50 [9]: 0.97 µM

O=C1OCC/C1=C\Nc1ccccc1
Kd (Heat shock protein HSP90 [10]): 150 µM

NNc1ccc(S(N)(=O)=O)cc1
IC50 (CDK2/Cyclin A2): > 1000 µM

O=C(O)c1cc2ccccc2o1
Kd [6]: 1000 µM

N=C(N)c1ccccc1 [BENZAMIDINE]
Ki [2]: 22 µM

CN(C)c1ncnc2nc[nH]c12 [DIMETHYLADENINE]
IC50 (Heat shock protein HSP90 [11]): 1500 µM

CCCCCC(=O)O [HEXANOATE]
Ki [4]: 260 µM

O=C(O)c1ccc2ccccc2n1 [QUINALDIC ACID]
Kd [12]: > 1000 µM

Source: ChEMBL document CHEMBL4665682, “Fragment Linking Strategies for Structure-Based Drug Design” (J Med Chem, 2020)
